Results taken from patent publication US20110190274A1, “SALT OF, AND PROCESSES FOR THE PREPARATION OF, 1-ISOPROPYL-4-HEXAHYDRO-1H-1,4-DIAZEPINE” (GLAXO GROUP LIMITED, priority 2008, published 2011).
pKi: −log10 of the molar value. Structures can show the parent of a compound that is named as a salt. Where two headings read alike, the source gives them in different places.

Tests used:
[1] = Gravimetric vapour sorption (GVS), water sorption/desorption isotherm at varying relative humidity; assay type: physicochemical; conditions: for water reversibly adsorbed and/or absorbed, and/or desorbed (GVS): relative to minimum mass; for weight gain relative to the minimum mass at 0% RH (GVS) / weight gain cf. minimum mass (GVS): 25° C.
Protocol: Gravimetric vapour sorption (GVS) data were acquired on a Hiden IGA-Sorp analyser model (available from Hiden Isochema Ltd., 231 Europa Boulevard, Gemini Business Park, Warrington WA5 7TN, United Kingdom), generating a full sorption/desorption isotherm using water vapour perfusion at 25° C. under nitrogen gas and at varying relative humidities (RH).
23 milligrams of a sample of the crystalline Form 1 of 1-isopropyl-4-{[4-(tetrahydro-2H-pyran-4-yloxy)phenyl]carbonyl}hexahydro-1H-1,4-diazepine mono-maleate prepared in Example 4 were placed into a clean and dry tared sample mesh pan and weighed using the IGA-Sorp internal balance.
(i) starting from about 30% RH and increasing to about 90% RH in increments of about 10% RH (results shown as the solid line in the middle and on the right of FIG. 5), and then (ii) decreasing from about 90% RH to 0% RH in increments of about 10% RH (results shown as the dotted line in FIG. 5), and then (iii) increasing from 0% RH to about 30% RH, in increments of about 5% RH up to ca. 10% RH, and then in increments of about 10% RH from ca. 10% to ca. 30% RH (results shown as the solid line on the left of FIG. 5).
The weight of the sample was recorded after each ca. 10% RH increment. The point of equilibrium, after each ca. 10% RH increment, was automatically determined using a 97% asymptote setting.
Gravimetric Vapour Sorption (GVS) data, on the solid 1-isopropyl-4-{[4-(tetrahydro-2H-pyran-4-yloxy)phenyl]carbonyl}hexahydro-1H-1,4-diazepine hydrochloride from Example 2, Part C (the “kinetic” solid hydrochloride salt produced by fast crystallisation, and before purification by recrystallisation), were acquired on a DVS-1 SMS model (available from Surface Measurement System (SMS)), generating a full sorption/desorption isotherm using water vapour perfusion at 25° C. under nitrogen gas and at varying relative humidities (RH).
22 milligrams of the specified solid hydrochloride salt sample were placed into a clean and dry tared sample glass pan and weighed using the DVS-1 internal balance.
(i) starting from about 30% RH and increasing to about 90% RH in increments of about 10% RH (results shown as the line in the middle and on the right of FIG. 6, going from ca. 7-8% weight gain cf. minimum mass at ca. 30% RH, to ca. 14-15% weight gain cf. minimum mass at ca. 90% RH), and then (ii) decreasing from about 90% RH to 0% RH in increments of about 10% RH (results shown as the line in FIG. 6, starting from ca. 14-15% weight gain cf. minimum mass at ca. 90% RH, going towards the left almost horizontally to ca. 14% weight gain at ca. 30% RH, and then going rapidly down to 0% weight gain at 0% RH), and then (iii) increasing from 0% RH to about 30% RH in increments of about 10% RH (results shown as the line on the bottom left of FIG. 6, going from 0% weight gain at 0% RH to about 2% weight gain at ca. 30% RH).
The weight of the sample was recorded after each ca. 10% RH increment. The point of equilibrium was automatically determined using a 0.02 dm/dt setting.

[2] = target: T1, histamine H3 receptor (Homo sapiens, UniProt Q9Y5N1); assay: histamine H3 functional antagonist assay using membrane prepared from cultured H3 cells; assay type: biochemical
T1 construct: host or cells: cultured H3 cells (membranes)
Protocol: 1-Isopropyl-4-{[4-(tetrahydro-2H-pyran-4-yloxy)phenyl]carbonyl}hexahydro-1H-1,4-diazepine hydrochloride was tested using substantially the histamine H3 functional antagonist assay disclosed on pages 47-49, and in particular page 48 line 26 to page 49 line 7, of WO 2009/030716 A1 (Glaxo Group Limited). The result is expressed as a functional pKi (fpKi) value. A functional pKi is the negative logarithm of the antagonist equilibrium dissociation constant as determined in the H3 functional antagonist assay using membrane prepared from cultured H3 cells. The result given is an average of a number of experiments.

[3] = Karl Fischer analysis of water content; assay type: physicochemical; conditions: normal United Kingdom room humidity
Protocol: A Karl Fischer analysis of water content was carried out on the crystalline Form 1 mono-maleate salt prepared in Example 4 (at normal United Kingdom room humidity). This Karl Fischer analysis reported a water content of less than 0.1% w/w.

[4] = target: T2, histamine H3 receptor (Rattus norvegicus, UniProt Q9QYN8); conditions: following oral administration to the rat; cited from earlier work
T2 construct: from tissue; host or cells: rat cortex

[5] = system: rats; conditions: certain oral doses; cited from earlier work
[6] = system: rodent; conditions: literature reports; cited from earlier work
[7] = Hygroscopicity and stability of the solid diazepine intermediate salts in air; assay type: physicochemical; conditions: for hygroscopicity of the solid: air at normal humidities, normal relative humidity (e.g. ca. 30%) at 25° C.
Source text: (i) The use of 1-isopropyl-hexahydro-1H-1,4-diazepine bis-trifluoroacetate allows the avoidance of the use of toxic dioxane in the preparation of 1-(isopropyl)-hexahydro-1H-1,4-diazepine dihydrochloride (from the BOC-protected precursor e.g. Intermediate 1), which preparation typically (see e.g. Intermediate 2 herein) uses HCl (e.g. 4M HCl) in dry dioxane (to avoid the water present in aqueous hydrochloric acid) in order to obtain solid 1-(isopropyl)hexahydro-1H-1,4-diazepine dihydrochloride. […] This hygroscopicity makes it difficult to quantify and weigh the dihydrochloride salt for the coupling reaction, and also can lead to the presence of undesired water in the coupling reaction (e.g. with DCI).

[8] = across the 0-90% relative humidity range at 25° C. under nitrogen

T1 sequence (Q9Y5N1 whole entry): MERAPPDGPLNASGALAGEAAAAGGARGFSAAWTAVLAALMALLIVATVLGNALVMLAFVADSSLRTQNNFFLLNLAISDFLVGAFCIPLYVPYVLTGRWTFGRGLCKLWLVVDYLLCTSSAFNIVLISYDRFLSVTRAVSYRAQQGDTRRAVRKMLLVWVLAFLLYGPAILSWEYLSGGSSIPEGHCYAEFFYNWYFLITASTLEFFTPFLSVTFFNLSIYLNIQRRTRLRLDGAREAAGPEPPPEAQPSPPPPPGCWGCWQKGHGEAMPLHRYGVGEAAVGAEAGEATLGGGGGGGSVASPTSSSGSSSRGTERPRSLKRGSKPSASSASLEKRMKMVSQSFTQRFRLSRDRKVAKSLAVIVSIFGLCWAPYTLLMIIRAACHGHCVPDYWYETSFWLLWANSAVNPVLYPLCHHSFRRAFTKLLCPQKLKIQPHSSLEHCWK
T2 sequence (Q9QYN8 whole entry): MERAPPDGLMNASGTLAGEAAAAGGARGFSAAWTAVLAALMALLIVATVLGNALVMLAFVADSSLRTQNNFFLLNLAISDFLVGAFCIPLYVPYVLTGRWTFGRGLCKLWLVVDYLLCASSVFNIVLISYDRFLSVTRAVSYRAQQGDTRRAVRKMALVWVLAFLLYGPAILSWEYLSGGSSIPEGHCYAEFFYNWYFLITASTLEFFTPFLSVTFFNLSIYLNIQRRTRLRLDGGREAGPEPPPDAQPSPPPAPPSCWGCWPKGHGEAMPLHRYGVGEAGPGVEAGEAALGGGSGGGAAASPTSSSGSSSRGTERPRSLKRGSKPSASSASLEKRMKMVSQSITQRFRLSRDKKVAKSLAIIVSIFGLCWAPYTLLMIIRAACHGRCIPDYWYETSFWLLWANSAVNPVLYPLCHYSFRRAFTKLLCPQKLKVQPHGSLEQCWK

CC(C)N1CCCN(C(=O)c2ccc(OC3CCOCC3)cc2)CC1 [Example 2 Part A, 1-Isopropyl-4-{[4-(tetrahydro-2H-pyran-4-yloxy)phenyl]carbonyl}hexahydro-1H-1,4-diazepine]
water reversibly adsorbed and/or absorbed, and/or desorbed (GVS) [1, 8]: 0.4-0.5 % w/w

CC(C)N1CCCN(C(=O)c2ccc(OC3CCOCC3)cc2)CC1.Cl [Example 2 Part C, 1-Isopropyl-4-{[4-(tetrahydro-2H-pyran-4-yloxy)phenyl]carbonyl}hexahydro-1H-1,4-diazepine hydrochloride]
pKi ([2]; 12 experiments, read-out: range of measured fpKi values): 7.70 to 9.30 | Ki ([2]; mean of 12 experiments, read-out: functional pKi (fpKi), H3 antagonism (converted)): ~5.01 nM | water sorption compared with crystalline Form 1 mono-maleate (GVS) [1, 8]: higher quantities of water | water reversibly adsorbed and/or absorbed, and/or desorbed (GVS) [1, 8]: 14-15 % w/w | weight gain relative to the minimum mass at 0% RH (GVS) ([1]; at about 30% RH, start of first sorption): 7-8 % w/w | weight gain relative to the minimum mass at 0% RH (GVS) ([1]; at about 90% RH, end of first sorption): 14-15 % w/w | weight gain cf. minimum mass (GVS) ([1]; at ca. 30% RH on desorption from ca. 90% RH): ca. 14% | weight gain cf. minimum mass (GVS) ([1]; at ca. 30% RH on re-sorption from 0% RH): about 2%

CC(C)N1CCCN(C(=O)c2ccc(OC3CCOCC3)cc2)CC1.O=C(O)/C=C\C(=O)O [Example 4, 1-Isopropyl-4-{[4-(tetrahydro-2H-pyran-4-yloxy)phenyl]carbonyl}hexahydro-1H-1,4-diazepine mono-maleate salt (crystalline Form 1)]
water content (Karl Fischer) [3]: less than 0.1 % w/w

CNC(=O)c1ccc(Oc2ccc3c(c2)CCN(C2CCC2)CC3)nc1 [GSK189254]
ex vivo binding in the rat cortex [4]: inhibited | performance in cognition paradigms [5]: improved performance

CC(C)(C)CCC#C[C@@H]1C[C@H]1c1c[nH]cn1 [GT-2331]
cognitive effect in rodent models [6]: cognitive enhancing properties

CC(C)N1CCCNCC1.Cl.Cl [Intermediate 2, 1-Isopropyl-hexahydro-1H-1,4-diazepine dihydrochloride]
hygroscopicity of the solid [7]: very hygroscopic

CC(C)N1CCCNCC1 [Intermediate 3, 1-Isopropyl-hexahydro-1H-1,4-diazepine bis-trifluoroacetate salt]
stability of the solid [7]: long-term stability | hygroscopicity of the solid [7]: substantially non-hygroscopic

O=C(c1ccc(OCCCc2cnc[nH]2)cc1)C1CC1 [ciproxifan]
cognitive effect in rodent models [6]: cognitive enhancing properties

NC(=NCc1ccc(Cl)cc1)SCCCc1cnc[nH]1 [clobenpropit]
cognitive effect in rodent models [6]: cognitive enhancing properties

S=C(NC1CCCCC1)N1CCC(c2cnc[nH]2)CC1 [thioperamide]
cognitive effect in rodent models [6]: cognitive enhancing properties
